Measured values as given in PMC7926937, “Suramin Targets the Conserved Ligand-Binding Pocket of Human Raf1 Kinase Inhibitory Protein” (Molecules, 2021).
Residue numbers refer to the chain shown, from its start. Read-outs that look alike come from different tables or passages of the source.

Tests used:
hRKIP [1] = molecular target: T1, hRKIP (Homo sapiens, UniProt P30086); assay: BLI assay of ligand binding to wild-type hRKIP
T1 construct: made in house; host or cells: E. coli
Protocol: (§1) Both unlabeled and ^15N-labeled hRKIP proteins were prepared as described previously. Eight hRKIP mutants (P74L, Y81A, S109A, P111L, P112L, K113A, W173A, and Y181A) were generated by site-directed mutagenesis using the vector of pReceiver-B01a-RKIP as the template and confirmed by DNA sequencing. All protein purifications were performed at 4 °C. Protein purities were verified by polyacrylamide gel electrophoresis, and protein concentrations were measured by NanoVue (GE Heathcare Co, Boston, MA, USA).
(§2) The interaction between hRKIP and suramin was detected by using the ForteBio Octet Red system (ForteBio, Inc, San Francisco, CA, USA). The wild-type His-tagged hRKIP protein or its mutant was immobilized onto NTA reactive biosensors, and the captured biosensors were individually dipped into the wells containing various concentrations of suramin (25, 50, 100, 200, and 400 μM). The association at each suramin concentration was detected for 900 s, while the dissociation was monitored for 1800 s. The sensors loading hRKIP without suramin were used as controls to correct baseline drifts. The wells containing various concentrations of suramin without loading protein served as references. The association and dissociation responses were corrected and processed using Octet Data Analysis Software (Version 7.0, ForteBio, Inc, San Francisco, CA, USA). The interferometry data were fitted using the 1:1 Langmuir binding model.

[2] = system: hRKIP-mediated Ras/Raf1/MEK/ERK signal pathway; assay: ERK phosphorylation (Western blot) in hRKIP-transfected HEK293T cells; format: cell-based, human; conditions: 160 µM suramin, 30 min before EGF stimulation, compared with no suramin treatment
Protocol: (§3) Human HEK293T cells were used as control group. HEK293T cells were first transfected with the exogenous hRKIP gene (the hRKIP-treated group), then the hRKIP transfected cells were serum starved overnight (10 h) and then incubated with 160 μM suramin for 30 min before EGF stimulation (the hRKIP-suramin-treated group). The transfection process was performed as following: 4 μg of pcDNA3.0-hRKIP was mixed with 75 μL lipotap (Beyotime, China), and the mixture was incubated with HEK293T cell in the dulbecco’s modified eagle medium (DMEM) with 100 units/mL penicillin (Sagon, Shanghai, China), 100 μg/mL streptomycin (Sagon, Shanghai, China) and 10% fetal bovine serum (Hyclone, Logan, UT, USA) for 6 h. Then the lipotap-DNA mixture was removed, and the transfected cell was further cultured in fresh medium. For all the three groups, the cells were cultured in DMEM supplemented with serum and […] at 37 °C. At 70% confluency, 10 ng/mL EGF was used to stimulate the Ras/Raf/MEK/ERK signal pathway for 5 min. The reaction was stopped by phosphate-buffered saline. […]
(§4) Cellular assay data are presented as mean ± standard deviation (SD). […] Statistical significances were determined using Student’s t-test. p < 0.05 was considered statistically significant.

hRKIP Y81A mutant = molecular target: T2, hRKIP Y81A mutant (Homo sapiens, UniProt P30086, Y81A); assay: BLI assay of suramin binding to hRKIP mutant Y81A
T2 construct: made in house; host or cells: E. coli
T2 sequence (P30086 1-187 Y81A): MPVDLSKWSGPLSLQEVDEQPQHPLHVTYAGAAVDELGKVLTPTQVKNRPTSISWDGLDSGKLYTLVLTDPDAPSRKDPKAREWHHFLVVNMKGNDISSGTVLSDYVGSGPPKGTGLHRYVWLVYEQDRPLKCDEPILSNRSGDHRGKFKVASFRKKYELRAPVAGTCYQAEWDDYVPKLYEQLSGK
Protocol: as §1, §2

[3] = system: phosphorylation level of p-ERK in HEK293T cell; assay: ERK phosphorylation (Western blot) in HEK293T cells; format: cell-based, human; conditions: 160 μM suramin
Protocol: as §3, §4

hRKIP P112L mutant = molecular target: T3, hRKIP P112L mutant (Homo sapiens, UniProt P30086, P112L); assay: BLI assay of suramin binding to hRKIP mutant P112L
T3 construct: made in house; host or cells: E. coli
T3 sequence (P30086 1-187 P112L): T2 sequence (P30086 1-187 Y81A) with A81Y, P112L
Protocol: as §1, §2

HEK293T cell = assay: MTS experiments on HEK293T cells; format: cell-based; conditions: Homo sapiens, HEK-293T
hRKIP Y181A mutant = molecular target: T4, hRKIP Y181A mutant (Homo sapiens, UniProt P30086, Y181A); assay: BLI assay of suramin binding to hRKIP mutant Y181A
T4 construct: made in house; host or cells: E. coli
T4 sequence (P30086 1-187 Y181A): T2 sequence (P30086 1-187 Y81A) with A81Y, Y181A
Protocol: as §1, §2

[4] = system: HEK293T cells transfected with hRKIP; assay: Viability of HEK293T cells transfected with hRKIP; format: cell-based, human
Protocol: We further explored the effects of suramin treatment on hRKIP-mediated Ras/Raf1/MEK/ERK signal pathway by detecting the phosphorylation level of ERK, which could only be activated by MEK [37]. Principally, hRKIP binding with Raf1 inhibits the phosphorylation of Raf1, thereby blocking the following ERK phosphorylation and downregulating the MAPK pathway. […] The transfected cells were then treated with 160 μM suramin. The suramin concentration was experimentally determined as the maximal tolerant concentration for cell viability (Figure 4c), which was consistent with that used usually in clinical patients. […] As a result, the free Raf1 kinase was phosphorylated and the Ras/Raf1/MEK/ERK pathway was promoted with an enhanced phosphorylation level of the following ERK kinase.
Figure 4 Effects of suramin treatment on hRKIP-mediated Ras/Raf1/MEK/ERK pathway in HEK293 cells (a,b) Western blot analysis for the effect of suramin treatment on hRKIP-mediated ERK phosphorylation;(c) Effect of suramin treatment on viabilities of HEK293T cells transfected with hRKIP. (d,e) Western blot analysis for the effect of suramin on the ERK phosphorylation of HEK293T cell. * p <0.1; *** p <0.001; **** p <0.0001, n = 3 for each group.

hRKIP P74L mutant = molecular target: T5, hRKIP P74L mutant (Homo sapiens, UniProt P30086, P74L); assay: BLI assay of suramin binding to hRKIP mutant P74L
T5 construct: made in house; host or cells: E. coli
T5 sequence (P30086 1-187 P74L): T2 sequence (P30086 1-187 Y81A) with P74L, A81Y
Protocol: as §1, §2

hRKIP W173A mutant = molecular target: T6, hRKIP W173A mutant (Homo sapiens, UniProt P30086, W173A); assay: BLI assay of suramin binding to hRKIP mutant W173A
T6 construct: made in house; host or cells: E. coli
T6 sequence (P30086 1-187 W173A): T2 sequence (P30086 1-187 Y81A) with A81Y, W173A
Protocol: as §1, §2

hRKIP S109A mutant = molecular target: T7, hRKIP S109A mutant (Homo sapiens, UniProt P30086, S109A); assay: BLI assay of suramin binding to hRKIP mutant S109A
T7 construct: made in house; host or cells: E. coli
T7 sequence (P30086 1-187 S109A): T2 sequence (P30086 1-187 Y81A) with A81Y, S109A
Protocol: as §1, §2

hRKIP K113A mutant = molecular target: T8, hRKIP K113A mutant (Homo sapiens, UniProt P30086, K113A); assay: BLI assay of suramin binding to hRKIP mutant K113A
T8 construct: made in house; host or cells: E. coli
T8 sequence (P30086 1-187 K113A): T2 sequence (P30086 1-187 Y81A) with A81Y, K113A
Protocol: as §1, §2

hRKIP [5] = molecular target: T1, hRKIP; parameters: method as in PMID 30137201; conditions: PE binding to hRKIP ref 34; cited from earlier work

T1 sequence (P30086 whole entry): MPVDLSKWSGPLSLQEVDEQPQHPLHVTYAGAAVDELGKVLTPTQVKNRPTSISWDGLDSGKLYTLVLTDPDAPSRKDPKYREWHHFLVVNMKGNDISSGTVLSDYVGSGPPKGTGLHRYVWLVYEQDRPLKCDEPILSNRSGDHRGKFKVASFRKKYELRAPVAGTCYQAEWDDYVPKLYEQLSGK

With Cc1ccc(C(=O)Nc2ccc(S(=O)(=O)O)c3cc(S(=O)(=O)O)cc(S(=O)(=O)O)c23)cc1NC(=O)c1cccc(NC(=O)Nc2cccc(C(=O)Nc3cc(C(=O)Nc4ccc(S(=O)(=O)O)c5cc(S(=O)(=O)O)cc(S(=O)(=O)O)c45)ccc3C)c2)c1 [suramin, Suramin] as the compound, how does the kobs (hRKIP [1]; BLI, wild-type RKIP) read?
Its kobs is 0.00368 s⁻¹.

What about the Kd (hRKIP [1]; BLI, wild-type RKIP, 1:1 Langmuir binding model) of the same compound?
Its Kd is 23.8 µM.

What about the koff (hRKIP [1]; BLI, wild-type RKIP, read-out: koff) of the same compound?
Its koff is 0.000207 s⁻¹.

What about the kon (hRKIP [1]; BLI, wild-type RKIP, read-out: kon) of the same compound?
Its kon is 8.69 M⁻¹ s⁻¹.

And the koff (hRKIP [1]; BLI, wild-type hRKIP, read-out: dissociation rate (koff))?
The koff was 0.0002 s⁻¹.

What about the “higher affinity for binding to hRKIP compared with PE” value (hRKIP [1]; ratio of KD values, PE as native substrate) of the same compound?
Its value is “about 370 fold”.

And the “increase of ERK phosphorylation level” value [2]?
The value was “around 3 times”.

What about the Kd (hRKIP Y81A mutant; Y81A mutant) of the same compound?
Its Kd is 29.7 µM.

And the kobs (hRKIP Y81A mutant; Y81A mutant)?
Its kobs is 0.000291 s⁻¹.

What about the koff (hRKIP Y81A mutant; Y81A mutant) of the same compound?
The koff was 0.000158 s⁻¹.

What about the kon (hRKIP Y81A mutant; Y81A mutant) of the same compound?
The kon was 5.31 M⁻¹ s⁻¹.

And the “decrease of affinity of suramin relative to hRKIP” value (hRKIP Y81A mutant; Y81A mutant vs wild type)?
Its value is “around 20%”.

What about the “enhancement of phosphorylation level of p-ERK” value [3] of the same compound?
Its value is “around 48%”.

And the Kd (hRKIP P112L mutant; P112L mutant)?
The Kd was 20.4 µM.

And the kobs (hRKIP P112L mutant; P112L mutant)?
Its kobs is 0.00037 s⁻¹.

And the koff (hRKIP P112L mutant; P112L mutant)?
Its koff is 0.000166 s⁻¹.

And the kon (hRKIP P112L mutant; P112L mutant)?
The kon was 8.14 M⁻¹ s⁻¹.

What about the “change of affinity of suramin relative to hRKIP” value (hRKIP P112L mutant; P112L mutant vs wild type) of the same compound?
Its value is “slightly increased affinity”.

What about the IC50 (HEK293T cell) of the same compound?
Its IC50 is 479 µM.

And the Kd (hRKIP Y181A mutant; Y181A mutant)?
The Kd was 711 µM.

What about the kobs (hRKIP Y181A mutant; Y181A mutant) of the same compound?
The kobs was 0.000177 s⁻¹.

And the koff (hRKIP Y181A mutant; Y181A mutant)?
Its koff is 0.000156 s⁻¹.

And the kon (hRKIP Y181A mutant; Y181A mutant)?
The kon was 0.22 M⁻¹ s⁻¹.

And the “decrease of affinity of suramin relative to hRKIP” value (hRKIP Y181A mutant; Y181A mutant vs wild type)?
The value was “more than 75%”.

And the “maximal tolerant concentration for cell viability” value [4]?
Its value is 160 µM.

And the Kd (hRKIP P74L mutant; P74L mutant)?
The Kd was 37.1 µM.

What about the kobs (hRKIP P74L mutant; P74L mutant) of the same compound?
The kobs was 0.000367 s⁻¹.

And the koff (hRKIP P74L mutant; P74L mutant)?
Its koff is 0.000275 s⁻¹.

What about the kon (hRKIP P74L mutant; P74L mutant) of the same compound?
The kon was 7.39 M⁻¹ s⁻¹.

What about the “decrease of affinity of suramin relative to hRKIP” value (hRKIP P74L mutant; P74L mutant vs wild type) of the same compound?
Its value is “more than 30%”.

And the Kd (hRKIP W173A mutant)?
The Kd was 77.3 µM.

What about the kobs (hRKIP W173A mutant) of the same compound?
The kobs was 0.000553 s⁻¹.

And the koff (hRKIP W173A mutant)?
Its koff is 0.000241 s⁻¹.

What about the kon (hRKIP W173A mutant) of the same compound?
Its kon is 3.12 M⁻¹ s⁻¹.

And the Kd (hRKIP S109A mutant; S109A mutant)?
Its Kd is 26 µM.

And the kobs (hRKIP S109A mutant; S109A mutant)?
Its kobs is 0.00295 s⁻¹.

What about the koff (hRKIP S109A mutant; S109A mutant) of the same compound?
The koff was 0.00018 s⁻¹.

What about the kon (hRKIP S109A mutant; S109A mutant) of the same compound?
The kon was 6.93 M⁻¹ s⁻¹.

What about the “decrease of binding affinity of suramin relative to hRKIP” value (hRKIP S109A mutant; S109A mutant vs wild type) of the same compound?
The value was “around 10%”.

What about the Kd (hRKIP K113A mutant) of the same compound?
Its Kd is 87.2 µM.

And the kobs (hRKIP K113A mutant)?
The kobs was 0.00038 s⁻¹.

What about the koff (hRKIP K113A mutant) of the same compound?
The koff was 0.000295 s⁻¹.

What about the kon (hRKIP K113A mutant) of the same compound?
The kon was 3.38 M⁻¹ s⁻¹.

With NCCOP(=O)(O)O [PE, oO-phosphorylethanolamine] as the compound, how does the kon (hRKIP [1]; BLI, wild-type RKIP) read?
The kon was 3.0 M⁻¹ s⁻¹.

What about the “dissociation rate (koff)” value (hRKIP [1]; BLI, wild-type hRKIP) of the same compound?
The value was 0.0264 s⁻¹.

What about the Kd (hRKIP [5]) of the same compound?
The Kd was 8810 µM.
